# Measurements published in paper PMC7395176, “Retromer stabilization results in neuroprotection in a model of Amyotrophic Lateral Sclerosis” (Nature Communications, 2020).
# What was measured:
# [1] = biological target: T1, VPS35 (Mus musculus, UniProt Q9EQH3+Q9QZ88); conditions: Neuro2a cells, 10 µM, 48 h, WB
# Description: Protein extracts were collected, separated by SDS-PAGE and immunoblotted for VPS35 and the housekeeping gene β-Actin.
# Neuro2a cells (ATCC® CCL-131™) were seeded in Dulbecco’s modified Eagle’s media (DMEM, Gibco) supplemented with FBS 10% (Gibco), L-glutamine (Gibco) 2 mM and penicillin/streptomycin 1% (Gibco). Depending on the experimental setting, we used 6-well, 12-well or 96-well dishes. Neuro2a were grow at 37 °C in a humidified 5% CO2 atmosphere. All experiments were carried out at least in triplicate. Compounds and transfections were done on cells showing 60–70% of confluence. Compounds were usually kept on cells for 48 h; Bortezomib (BTZ) was used at 10 nM for 6 h to inhibit proteasome.
# Protein lysates from cells cultures were collected from plates receiving PBS 1× washing and subsequently the lysis buffer followed by sonication. Protein concentrations were measured by BCA protein assay kit (Thermofisher) according to the manufacturer’s recommendations. Ten µg of protein extract was loaded on 10% Mini-PROTEAN TGX Stain-Free precast gels for PAGE (Bio-Rad). Gel electrophoresis was performed at 100 V for 2 h. Gels were transferred on Immobilon®-P PVDF membrane according to the manufacturer’s instructions (Millipore). Blots were blocked in 5% BSA in Tris buffered saline plus 0.1% Tween-20 (TBS-T) for 1 h before receiving primary antibodies: goat α-VPS35 1:800 (ab10099, Abcam); rabbit α-VPS26 1:1000 (ab23892 Abcam), rabbit α-VPS26b 1:1000 (15915-1-AP, ProteinTech); rabbit α-VPS29 1:1000 (ab236796 Abcam); mouse α-βActin 1:25000 (Sigma–Aldrich); mouse α-Golgin97 1:1000 (Invitrogen); mouse α-Ubiquitin 1:500 (Merk); rabbit α-CD14 1:1000 (Bioss Inc); mouse α-Tubulin 1:5000 (Immunological Sciences MAB-80143) overnight at 4 °C on shaker. Following several washes with TBS-T, blots were incubated in appropriate HRP-labeled secondary antibodies (Bio-Rad) for 1 h at room temperature. Visualization of protein bands was obtained using ClarityMax-ECL (Bio-Rad) according to the manufacturer’s instructions and images were acquired on ChemiDoc (Bio-Rad). Quantifications were done using the Image Lab 6.0.1 software (Bio-Rad).
# [2] = test system: APP processing; design: method as in PMID 24747528; conditions: neurons carrying pathogenic APP mutations; cited from earlier work
# [3] = test system: VPS35-VPS29 interaction / retromer; design: method as in PMID 24747528; conditions: cited from earlier work
# [4] = test system: Vps35, Vps26, and Vps29 mRNAs; design: method as in PMID 24747528; conditions: cited from earlier work
# [5] = biological target: VPS29-VPS35 heterodimer (Homo sapiens, UniProt Q96QK1+Q9UBQ0); experiment: STD-NMR and WaterLogsy-NMR ligand-based binding experiments; conditions: STD- and WL-NMR competition experiments could not be performed
# Description: We used a ligand-based NMR approach to localize the binding between compound 2a and the VPS29-VPS35 heterodimer. These techniques provide binding information without requiring any isotopic labeling of the proteins. Particularly, Saturation Transfer Difference NMR (STD-NMR)[32] and WaterLogsy-NMR (WL-NMR)[33] experiments were acquired in buffer solutions containing a large excess of compound 2a (500μM) with respect to VPS29-VPS35 (10 μM). Both STD-NMR and WL-NMR focus on the NMR signals of the ligand and utilize the magnetization transfer by the Nuclear Overhauser Effect (NOE) between protein and ligand. STD-NMR experiments are carried out by subtraction of a 1D ^1H spectrum where the protein protons are selectively irradiated (on-resonance spectrum) from a spectrum in which the protein is not saturated (off-resonance spectrum).
# WL-NMR entails magnetization transfer to the ligand from either bulk water via a macromolecule, and/or the exchangeable protons and the water molecules present in the binding site. Positive peaks for proton resonances of the ligand in the WL-NMR spectrum are observed for binders in presence of the protein. […] As negative control, STD-NMR and WL-NMR experiments were performed for compound 2a in absence of the heterodimer. The absence of proton signals in the aromatic zone and the presence of negative signals in STD-NMR (Fig. 2k) and WL-NMR (Fig. 2l) spectra, respectively, confirms the binding between compound 2a and the VPS29-VPS35 heterodimer. Unfortunately, STD- and WL-NMR competition experiments between 2a and R55/1 could not be performed since the latter compound was not stable in our experimental conditions.
# NMR spectra were acquired at 298K on a Bruker Avance NEO 700 MHz spectrometer equipped with a Z-gradient cryoprobe. The spectra were processed with the Bruker TOPSPIN 4.0.5 software packages. […] 1D ^1H spectra were recorded using a 1 s presaturation pulse with a B1 power of 200 Hz. […]
# [6] = biological target: T1, VPS35; experiment: Western blot for VPS35 in spinal cord extracts of treated C57BL6J mice; format: in vivo; design: from tissue; host or cells: mouse (lumbar) spinal cord, motor neurons; conditions: 10 mg/Kg intraperitoneally daily, 1 week
# Description: Compounds 2a, 4a, and standard R55/1 (10 mg/Kg) were intraperitoneally injected in C57BL6J mice daily. After 1 week, mice were sacrificed, saline perfused to avoid CNS contamination by compounds in blood circulation, and SC protein extracts were assayed by WB. […] Therefore, phenyl-1,3-bis-guanylhydrazone 2a was selected as an early lead.
smiles,measurement,setting,value
NC(N)=N/N=C/c1ccc(/C=N/N=C(N)N)s1 [compound 3a],VPS35 levels,[1],increased VPS35 levels
N=C(N)SCc1ccc(CSC(=N)N)s1 [R55/1],accumulation of amyloid-β peptides and APP processing,[2],reduced the accumulation of amyloid-β (Aβ) peptides as well as APP processing
same,VPS35-VPS29 interaction,[3],stabilizes the VPS35-VPS29 interaction
same,VPS35 and VPS26 levels in cultured cells,[3],increases VPS35 and VPS26 levels
same,increase of VPS35 levels in cells,[3],~60%
same,VPS35 levels,[1],increased
same,transcription levels of CRC genes,[4],did not influence
same,stability in NMR experimental conditions,[5],not stable
N=C(N)SCc1cccc(CSC(=N)N)c1 [compound 4a],VPS35 levels in SC extracts,[6],"slightly, but not significantly, increased"
same,VPS35 levels,[1],increased VPS35 levels
